In patent publication US12421249B2, “Inhibitors of APOL1 and methods of using same” (Vertex Pharmaceuticals Incorporated, priority 2020, dated 2025):
Where two headings read alike, the source gives them in different places.

Tests used:
APOL1 G1 = molecular target: T1, APOL1 G1 (Homo sapiens, UniProt O14791, I384M/S342G); test: Trypanosoma brucei brucei Lysis Assay Using APOL1 Recombinant Protein (AlamarBlue viability readout); format: cell-based; details: for IC50: IP50 = IC50 for cell proliferation, read-out: Trypanosome Assay IP50; for Emax: read-out: Trypanosome Assay Max Activity (%)
T1 sequence (O14791 28-398 S342G/I384M): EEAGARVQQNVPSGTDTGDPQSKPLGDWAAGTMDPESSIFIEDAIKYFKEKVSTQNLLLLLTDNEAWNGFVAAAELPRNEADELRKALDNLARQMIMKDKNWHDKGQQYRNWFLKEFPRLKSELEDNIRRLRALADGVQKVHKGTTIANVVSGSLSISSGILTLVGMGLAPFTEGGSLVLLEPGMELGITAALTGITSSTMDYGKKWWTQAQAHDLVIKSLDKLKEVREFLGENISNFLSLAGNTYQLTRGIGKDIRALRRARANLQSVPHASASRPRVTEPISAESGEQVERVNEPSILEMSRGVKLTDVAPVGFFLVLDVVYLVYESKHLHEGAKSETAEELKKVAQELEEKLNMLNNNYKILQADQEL
Method in brief: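 Percent viability comes from AlamarBlue (resazurin→resorufin) fluorescence interpolated on a standard curve of known parasite numbers, with no-APOL1 wells as 100%. Parasites (Lister 427 bloodstream form, 120,000/well, serum-free assay medium) meet 0.05 μg/mL APOL1 (~EC90). Compounds span a 10-point series, 0.1% DMSO final.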

APOL1 = molecular target: T2, APOL1 (Homo sapiens, UniProt O14791); test: Multi-Tox Assay (MultiTox-Fluor Multiplex Cytotoxicity Assay in tet-inducible APOL1 T-REx-HEK293 cells; Table 46 does not say which APOL1 variant G0/G1/G2); format: cell-based; details: APOL1 variant not given; for IC50: IP50 = IC50 for cell proliferation
T2 sequence (O14791 1-398 S342G/I384M): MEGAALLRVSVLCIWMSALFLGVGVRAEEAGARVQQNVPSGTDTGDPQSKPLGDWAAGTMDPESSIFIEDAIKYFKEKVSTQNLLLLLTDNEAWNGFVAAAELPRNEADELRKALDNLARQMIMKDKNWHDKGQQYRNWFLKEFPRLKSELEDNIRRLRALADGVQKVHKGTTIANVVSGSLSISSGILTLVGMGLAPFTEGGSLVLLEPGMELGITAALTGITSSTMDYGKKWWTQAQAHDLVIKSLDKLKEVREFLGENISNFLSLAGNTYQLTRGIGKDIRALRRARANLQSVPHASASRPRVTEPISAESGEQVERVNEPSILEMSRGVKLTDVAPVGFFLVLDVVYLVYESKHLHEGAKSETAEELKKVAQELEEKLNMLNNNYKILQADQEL

| SMILES | IC50 (APOL1 G1; Trypanosome Assay) [nM] | Emax (APOL1 G1; Trypanosome Assay) [%] | IC50 (APOL1) [nM] | Multi-Tox Assay Max Activity (%) (APOL1) | Emax (APOL1 G1) [%] | IC90 (APOL1) [nM] |
| --- | --- | --- | --- | --- | --- | --- |
| CCC1CC2(CC(C)N1)OCCc1cc(Cl)sc12 (mixture of isomers) [Compound 215] | 50 to 500 | 112 | < 50 | – | – | – |
| Cc1ccc([C@@H]2C[C@]3(C[C@H](C)N2)OCCc2cc(Cl)sc23)nn1 (racemic) [Compound 58] | < 50 | 100 | < 50 | 99.7 | – | – |
| Cc1noc2cc([C@@H]3C[C@]4(C[C@H](C)N3)OCCc3cc(Cl)sc34)ccc12 (racemic) [Compound 25] | < 50 | 109 | < 50 | 100.0 | – | – |
| COc1ccc([C@@H]2C[C@]3(C[C@H](C)N2)OCCc2cc(Cl)sc23)cc1O (racemic) [Compound 99] | < 50 | 102 | < 50 | 99.0 | – | – |
| CC1CC2(CC(C(C)C)N1)OCCc1cc(Cl)sc12 (mixture of isomers) [Compound 214] | 50 to 500 | 109 | < 50 | – | – | – |
| C[C@@H]1CC2(C[C@H](C)N1)OCCc1cc(C3CCCCC3)sc12 (single isomer, unassigned) [Compound 202] | > 500 | 19 | > 500 | – | – | – |
| Cc1cc([C@@H]2C[C@]3(C[C@H](C)N2)OCCc2cc(Cl)sc23)on1 (racemic) [Compound 66] | < 50 | 103 | < 50 | – | – | – |
| Cc1nccc([C@@H]2C[C@]3(C[C@H](C)N2)OCCc2cc(Cl)sc23)n1 (racemic) [Compound 116] | 50 to 500 | 101 | < 50 | – | – | – |
| C[C@H]1C[C@@]2(C[C@@H](c3ccc(O)cn3)N1)OCCc1cc(Cl)sc12 (racemic) [Compound 59] | < 50 | 116 | < 50 | 99.3 | – | – |
| Cc1nc2c([C@@H]3C[C@]4(C[C@H](C)N3)OCCc3cc(Cl)sc34)cccc2o1 (racemic) [Compound 170] | > 500 | 71.5 | > 500 | 89.7 | – | – |
| C[C@@H]1C[C@]2(C[C@H](C)N1)OCC(O)c1cc(Cl)sc12 (mixture of isomers) [Compound 205, (2R,6S)-2-chloro-2′,6′-dimethyl-spiro[4,5-dihydrothieno[2,3-c]pyran-7,4′-piperidine]-4-ol] | 50 to 500 | – | < 50 | – | 106 | – |
| C[C@H]1C[C@@]2(C[C@@H](c3cn4c(n3)COCC4)N1)OCCc1cc(Cl)sc12 (racemic) [Compound 74] | 50 to 500 | 110 | < 50 | – | – | – |
| C[C@H]1C[C@@]2(C[C@@H](c3cnc(N(C)C)nc3)N1)OCCc1cc(Cl)sc12 (racemic) [Compound 75] | < 50 | 105 | < 50 | – | – | – |
| CC1CC2(CC(CO)N1)OCCc1cc(Cl)sc12 (mixture of isomers) [Compound 210, (2-chloro-6′-methyl-spiro[4,5-dihydrothieno[2,3-c]pyran-7,4′-piperidine]-2′-yl)methanol] | > 500 | 104 | > 500 | – | – | – |
| C[C@H]1C[C@@]2(C[C@@H](c3ccn(C)n3)N1)OCCc1cc(Cl)sc12 (racemic) [Compound 118] | 50 to 500 | 98 | < 50 | 99.3 | – | – |
| C[C@H]1C[C@@]2(C[C@@H](CC3CCOCC3)N1)OCCc1cc(Cl)sc12 [Compound 219, (2S,6R)-2-chloro-2′-methyl-6′-(tetrahydropyran-4-ylmethyl)spiro[4,5-dihydrothieno[2,3-c]pyran-7,4′-piperidine]] | > 500 | 71 | > 500 | – | – | – |

| SMILES | IC50 (APOL1 G1; Trypanosome Assay) [nM] | Emax (APOL1 G1; Trypanosome Assay) [%] | IC50 (APOL1) [nM] | Multi-Tox Assay Max Activity (%) (APOL1) | Emax (APOL1 G1) [%] | IC90 (APOL1) [nM] |
| --- | --- | --- | --- | --- | --- | --- |
| C[C@H]1C[C@@]2(C[C@@H](c3ccc4c(c3)n(C)c(=O)n4C)N1)OCCc1cc(Cl)sc12 (racemic) [Compound 32] | < 50 | 116 | < 50 | 99.6 | – | < 50 |
| Cn1cc(C2CC3(CC(C4CCC4)N2)OCCc2cc(C(F)(F)F)sc23)nn1 (stereo not drawn) [Compound 192] | 50 to 500 | 100 | 50 to 500 | – | – | – |
| COc1ccc([C@@H]2C[C@]3(C[C@H](C)N2)OCCc2cc(Cl)sc23)cc1C#N (racemic) [Compound 62] | < 50 | 95 | < 50 | – | – | – |
| C[C@H]1C[C@@]2(C[C@@H](C3CC3)N1)OCC(O)c1cc(Cl)sc12 (stereo partly drawn) [Compound 220, (2S,6S)-2-chloro-2′-cyclopropyl-6′-methyl-spiro[4,5-dihydrothieno[2,3-c]pyran-7,4′-piperidine]-4-ol] | < 50 | 110 | < 50 | – | – | – |
| COCCn1cc([C@@H]2C[C@]3(C[C@H](C)N2)OCCc2cc(Cl)sc23)cn1 (racemic) [Compound 90] | < 50 | 104 | < 50 | – | – | – |
| C[C@H]1C[C@@]2(C[C@@H](c3cn(C)nn3)N1)OCC(O)(C(F)F)c1cc(Cl)sc12 (single isomer, unassigned) [Compound 184] | 50 to 500 | – | < 50 | – | – | – |
| C[C@H]1CC2(C[C@@H](c3cn(C)nn3)N1)OCCc1sc(Cl)cc12 (single isomer, unassigned) [Compound 173] | < 50 | 116 | < 50 | – | – | – |
| CC1CC2(CC(c3cncnc3)N1)OCCc1cc(Cl)sc12 (stereo not drawn) [Compound 45] | < 50 | 103 | < 50 | 100.0 | – | – |
| Cc1ccnc([C@@H]2C[C@]3(C[C@H](C)N2)OCCc2cc(Cl)sc23)c1 (racemic) [Compound 139] | > 500 | 98.3 | 50 to 500 | 98.0 | – | – |
| Clc1cc2c(s1)C1(C[C@@H](C3CC3)N[C@@H](C3CC3)C1)OCC2 (single isomer, unassigned) [Compound 206] | 50 to 500 | 104 | < 50 | – | – | – |
| C[C@H]1C[C@@]2(C[C@@H](c3cnc(C4CCOCC4)o3)N1)OCCc1cc(Cl)sc12 (racemic) [Compound 140] | 50 to 500 | 102 | 50 to 500 | 99.7 | – | – |
| C[C@H]1C[C@@]2(C[C@@H](c3cc(C(F)(F)F)[nH]n3)N1)OCCc1cc(Cl)sc12 (stereo in doubt) [Compound 119] | 50 to 500 | 97.5 | < 50 | 99.7 | – | – |
| Cc1nn(C)cc1[C@@H]1C[C@]2(C[C@H](C)N1)OCCc1cc(Cl)sc12 (racemic) [Compound 142] | 50 to 500 | 83.7 | 50 to 500 | 99.0 | – | – |
| C[C@H]1C[C@@]2(C[C@@H](c3ncc(C(F)(F)F)[nH]3)N1)OCCc1cc(Cl)sc12 (racemic) [Compound 165] | > 500 | 61 | > 500 | 92.0 | – | – |
| C[C@H]1C[C@@]2(C[C@@H](c3cc(C4CC4)no3)N1)OCCc1cc(Cl)sc12 (racemic) [Compound 87] | < 50 | – | < 50 | – | – | – |
| C[C@H]1C[C@@]2(C[C@@H](c3cnc(-c4ccccc4)o3)N1)OCCc1cc(Cl)sc12 (racemic) [Compound 70] | < 50 | 104 | < 50 | – | – | – |
